# Patent US6593342B1, “Pharmaceutical compositions comprising 2-quinolones” (Laboratoire L. Lafon, priority 1998, dated 2003)
# Key:
# Format in all cases: cell-based
# [1] = system: U-87MG; experiment: MTT test, U-87MG; settings: Homo sapiens, 10^−5 M, 72 hours, control = 100%, mean ± SEM, read-out: average optical density (MTT), percentage relative to control
# Procedure: (§1) The influence of the compounds of formulae (I) and (Ia) on non-clonogenic cells was evaluated with the aid of the MTT calorimetric test.
# (§2) The principle of the MTT test is based on the mitochondrial reduction, by the metabolically active live cells, of the yellow-colored product MTT (3-(4,5-dimethylthiazol-2-yl)-2,5-diphenyltetrazolium bromide) to a blue-colored product, formazan. The amount of formazan thus obtained is directly proportional to the amount of live cells present in the culture well(s). This amount of formazan is measured by spectrophotometry.
# (§3) The cell lines are maintained as a monolayer culture at 37° C. in stoppered culture dishes containing MEM 25 MM HEPES (Minimum Essential Medium) base medium. This medium is suited to the growth of a range of various mammalian diploid or primary cells. This medium is then supplemented with:
# (§4) an amount of 5% of FCS (Foetal Calf Serum) decomplemented at 56° C. for 1 hour,
# (§5) 0.6 mg/ml of L-glutamine,
# (§6) 200 μg/ml of streptomycin,
# (§7) The 12 human cancer cell lines which were used were obtained from the American Type Culture Collection (ATCC, Rockville, Md., USA). These 12 cell lines are:
# U-373MG (code ATCC: HTB-17) and U-87MG (code ATCC: HTB-14) which are two glioblastomas,
# (§8) Experimentally: 100 μl of a cell suspension containing 20 000 to 50 000 (depending on the cell type used) cells/ml of culture medium are inoculated in 96-well flat-bottomed multi-well plates and are incubated at 37° C., under an atmosphere comprising 5% CO2 and 70% humidity. After incubation for 24 hours, the culture medium is replaced with 100 μl of fresh medium containing either the various test compounds at concentrations ranging from 10^−5 to 10^−10 M or the solvent used to dissolve the test products (control condition). After incubation for 72 hours under the above conditions, the culture medium is replaced with 100 μl of a yellowish solution of MTT dissolved at a rate of 1 mg/ml in RPMI 1640. The microplates are reincubated for 3 hours at 37° C. and are then centrifuged for 10 minutes at 400×g. The yellowish solution of MTT is removed and the blue formazan crystals formed in the cell are dissolved in 100 μl of DMSO. The microplates are then shaken for 5 minutes. The intensity of the resulting blue coloration, and thus of the conversion of the yellow product MTT into blue formazan by the cells that are still alive at the end of the experiment, is quantified by spectrophotometry using a Dynatech Immunoassay System machine at wavelengths of 570 nm and 630 nm corresponding, respectively, to the maximum absorption wavelengths of formazan and to the background noise. Software incorporated in the spectrophotometer calculates the average optical density values and the standard deviation (SD) and standard error of mean (SEM) values.
# (§9) By way of example, the results of the average optical density, expressed as a percentage relative to the average optical density measured under the control condition (set equal to 100%), obtained at a concentration of 10^−5 M on the 12 abovementioned tumor cell lines are given in Table II.
# [2] = system: T-47D; experiment: MTT test, T-47D; settings: Homo sapiens, T47D, 10^−5 M, 72 hours, control = 100%, mean ± SEM, read-out: average optical density (MTT), percentage relative to control
# Procedure: as §1, §2, §3, §4, §5, §6, §7
# T-47D (code ATCC: HTB-133) and MCF7 (code ATCC: HTB-22) which are two breast cancers,
# as §8, §9
# [3] = system: PC-3; experiment: MTT test, PC-3; settings: Homo sapiens, 10^−5 M, 72 hours, control = 100%, mean ± SEM, read-out: average optical density (MTT), percentage relative to control
# Procedure: as §1, §2, §3, §4, §5, §6, §7
# PC-3 (code ATCC: CRL-1435) which is a prostate cancer.
# as §8, §9
# [4] = system: J82; experiment: MTT test, J82; settings: Homo sapiens, 10^−5 M, 72 hours, control = 100%, mean ± SEM, read-out: average optical density (MTT), percentage relative to control
# Procedure: as §1, §2, §3, §4, §5, §6, §7
# J82 (code ATCC: HTB-1) and T24 (code ATCC: HTB-4) which are two bladder cancers,
# as §8, §9
Compound,viability at 10 µM [1] [%],viability at 10 µM [2] [%],viability at 10 µM [3] [%],viability at 10 µM [4] [%]
"COc1ccc(-c2cc3c(OC)cc(OC)cc3[nH]c2=O)cc1 [CRL8246, 5,7-Dimethoxy-3-(4-methoxyphenyl)-1,2-dihydro-2-quinolinone]",92.1 ± 1.5,96 ± 2.6,122 ± 1.7,87.6 ± 2.2
"COc1ccc(-c2cc3c(OC)cc(OC)cc3n(CCC#N)c2=O)cc1 [CRL8247, 3-[5,7-Dimethoxy-3-(4-methoxyphenyl)-2-oxo-1,2-dihydro-1-quinolinyl]propanenitrile]",59 ± 2.3,58.3 ± 1.4,70.5 ± 4.6,55 ± 2.3
"COc1ccc(-c2cc3c(OC)cc(OC)cc3n(CCc3nnn[nH]3)c2=O)cc1 [CRL8256, 1-[2-(1H-1,2,3,4-Tetrazol-5-yl)ethyl]-5,7-dimethoxy-3-(4-methoxyphenyl)-1,2-dihydro-2-quinolinone]",84.7 ± 1.7,77.5 ± 3.6,86 ± 2.3,77.8 ± 0.8
"CCN(CC)C(=O)CCn1c(=O)c(-c2ccc(OC)cc2)cc2c(OC)cc(OC)cc21 [CRL8283, N,N-Diethyl-3-[5,7-dimethoxy-3-(4-methoxy-phenyl)-2-oxo-1,2-dihydro-1-quinolinyl]propanamide]",69.9 ± 3.4,81 ± 3.1,92.4 ± 1.7,71.6 ± 2.2
"CCN(CC)C(=O)Cn1c(=O)c(-c2ccc(OC)cc2)cc2c(OC)cc(OC)cc21 [CRL8315, N,N-Diethyl-2-[5,7-dimethoxy-3-(4-methoxy-phenyl)-2-oxo-1,2-dihydro-1-quinolinyl]acetamide]",87.6 ± 4.5,101 ± 2.5,93.6 ± 3,65.9 ± 1.3
"COc1ccc(-c2cc3c(OC)cc(OC)cc3n(CCN(C)C)c2=O)cc1 [CRL8316, 1-[2-(Dimethylamino)ethyl]-5,7-dimethoxy-3-(4-methoxyphenyl)-1,2-dihydro-2-quinolinone]",74.3 ± 1.4,68.8 ± 2.4,84.8 ± 2.3,26.9 ± 0.9
